Literature values in patent publication US10172902B2, “Ocular eyelid scrub composition for the treatment of demodex blepharitis” (LUNOVUS, LLC, priority 2014, dated 2019).

Test system: ocular Demodex
Details: solutions, suspensions, sprays, lotions, gels, pastes, cleansers, creams or ointments

**Q.** Which “treating an ocular Demodex infestation or Demodex-induced blepharitis” value does the source give for `CC1=CCC(O)(C(C)C)CC1` (stereo not shown) [terpinen-4-ol] here?
**A.** Its value is “effective”.
